The test system of assay [1] is Thr231 phosphorylated Tau. Description: Tau phosphorylation (Thr231) in neuronal primary cultures (MSD). In kind it is cell-based, mice. As to conditions: neurons, 50 μM, 100 μM and 150 μM for 18 h. As to the method:
FIG. 7. Plots illustrating the effect of Aftin-5 mediated attenuation of Tau phosphorylation in neuronal primary cultures. Culture media of cortical neurons were replaced by incubation medium containing Aftin-5 at 100 μM (A100) or 150 μM (A150) or vehicle (0.1% DMSO; Control). After 18 h incubation pTau (Thr231) and total Tau were quantified by sandwich immunoassay using the Meso Scale Discovery technology. Different Tau concentrations were expressed versus total proteins concentration. Kruskal-Wallis test and Dunn's Multiple Comparison post-hoc tests were performed and ***p<0.001 indicates significant differences between Aftin-5 and control conditions. Data expressed as means+/−SEM (n=6 wells/condition).
Hippocampi and cortex were dissected in HBSS containing 5 mM glucose (dissection medium). […] Cells were counted and seeded at a density of 22,000 per cm^2 for hippocampal neurons and 10^5 per cm^2 for cortical neurons into 24 wells culture plates (Costar) in plating medium (DMEM medium containing 10% heat-inactivated horse serum (Life Technologies)). […]
Tau and P-Tau in primary rat neurons, organotypic hippocampal slice cultures from wild type (WT) and transgenic Tau mice (3 Tg) after by Aftin-5. Tau was quantified by sandwich immunoassay using the Meso Scale Discovery technologies. […] After a short incubation (5 min) at room temperature, the plate is read on the SECTOR Imager 2400. […]

For the next assay, the system named is IL-6 cytokine. The assay can be described thus: Secreted IL-6 in LPS-treated human primary glial cells (MSD ELISA). Type of assay: cell-based. Conditions: LPS 6 h, then purine derivative 10 μM for 18 h. As to the method: For assessing the cytokine production, human primary glial cells were grown until confluent on coated collagen 12-well plates. Cells were serum-starved in glial serum-free medium for 2 h and treated with LPS for 6 h before treatment with purine derivatives (10 μM) for an additional 18 h. Supernatants were harvested and secreted IL-6 cytokine was measured by ELISA by the mean of the Meso Scale Discovery (MSD) technology. Briefly, a 96-well plate having 1 spot pre-coated with the corresponding antibody is provided by MSD Technology. Before adding the samples, a first saturation step is required. Once the plate is saturated and washed, 25 μL of sample (or calibrators) per well are loaded and incubated for 1 hour. Then the plate is washed and incubated with 25 μL of the Detection Antibody solution (MSD SULFO-TAG) for 1 hour. At the end of the incubation, the plate is washed and then a chemical solution (Read buffer 1×) is added allowing electrochemiluminescence. After a short incubation (5 min) at room temperature, the plate is read on the QUICK Plex SQ120. The instrument measures the intensity of the light electrochemiluminescence.

For another assay, the system named is p-Tau (Thr212). The assay can be described thus: p-Tau (Thr212)/total Tau in rat cortical neurons (western-blot). Type of assay: cell-based. As to conditions: purine derivative 10 μM (A100), 18 h. Here is the method:
Cells were lysed in freshly prepared lysis buffer containing in mM: Tris-HCl 50, EDTA 2, EGTA 2, NaCl 100, SDS 0.2%, Triton X-100 1%, proteases inhibitors (Roche Protease Inhibitor Cocktail #04693116001), phosphatases inhibitors (in mM: ammonium molybdate 0.1, β-glycerophosphate 20, NaF 50, Na-pyrophosphate 10, Orthovanadate 1). Protein concentration was measured by the Bradford assay and Laemmli buffer was added to each lysate. Proteins (10 μg per lane) were resolved on 12% Nu-PAGE (LifeTechonoliges #NP0342BOX) using MOPS SDS running buffer and transferred on Immobilon-FL PVDF membrane (Millipore #IPFL00010). Membranes were blocked one hour in TBS Tween20 0.1% BSA 5% at room temperature. Primary antibodies were incubated O/N at 4° C. and detected by Alexa 488 conjugated secondary antibodies (Life Techonologies #A11034 and A11029) diluted 1:1.000 in TBS Tween20 0.05% and 1% BSA. The antibodies specific for pThr212-Tau (Abcam #ab4842), pThr181-Tau (AbCam #ab75679), Tau (Millipore #MAB361), APP (Millipore #07-667) and Actin (Millipore #MAB1501) were diluted in TBS Tween20 0.05% and 1% BSA. Fluorescent signal was visualized with the VersaDoc™ Imaging System (Bio-Rad Laboratories) and quantified with Quantity One® Analysis Software. Grey levels measured for bands of interest were normalized to the corresponding actin bands.
For assessing the protein Tau's phosphorylation, the culture media of rat cortical neurons were replaced by incubation medium containing purine derivatives at 10 μM (A100) or vehicle (0.1% DMSO; Control). After 18 h incubation p-Tau (Thr212) and total Tau were quantified in the cellular extracts by western-blot.

`CC[C@H](CO)Nc1nc(N(C)c2ccccc2)c2ncn(C(C)C)c2n1` [Aftin-5]: in assay [1], the “Thr231 phosphorylated Tau protein” value was “significant dose dependent decrease”. For the same compound, the “Anti-inflammatory Compounds (secreted IL-6)” value in the assay on IL-6 cytokine is “+(>1 μM) (“+” means that the tested compound shows an anti-inflammatory and/or attenuation of Tau's phosphorylation property with a concentration higher than 1 μM)”. Also, the “Attenuation of P-Tau/Tau ratio” value in the assay with p-Tau (Thr212) is given as “+(>1 μM) (“+” means that the tested compound shows an anti-inflammatory and/or attenuation of Tau's phosphorylation property with a concentration higher than 1 μM)”.
